In US20210198277A1, “AMINE-SUBSTITUTED ARYL OR HETEROARYL COMPOUNDS” (Epizyme, Inc., priority 2016, published 2021) one finds IC50 data, which are given here for three compounds.

For orientation: IC50 means the concentration at which inhibition is half-maximal.

The structures appear in SMILES notation.

The target in the assay is T1, EHMT2 (Homo sapiens, UniProt Q96KQ7).
T1 construct: host or cells: MDA-MB-231
T1 sequence (Q96KQ7 1-1210): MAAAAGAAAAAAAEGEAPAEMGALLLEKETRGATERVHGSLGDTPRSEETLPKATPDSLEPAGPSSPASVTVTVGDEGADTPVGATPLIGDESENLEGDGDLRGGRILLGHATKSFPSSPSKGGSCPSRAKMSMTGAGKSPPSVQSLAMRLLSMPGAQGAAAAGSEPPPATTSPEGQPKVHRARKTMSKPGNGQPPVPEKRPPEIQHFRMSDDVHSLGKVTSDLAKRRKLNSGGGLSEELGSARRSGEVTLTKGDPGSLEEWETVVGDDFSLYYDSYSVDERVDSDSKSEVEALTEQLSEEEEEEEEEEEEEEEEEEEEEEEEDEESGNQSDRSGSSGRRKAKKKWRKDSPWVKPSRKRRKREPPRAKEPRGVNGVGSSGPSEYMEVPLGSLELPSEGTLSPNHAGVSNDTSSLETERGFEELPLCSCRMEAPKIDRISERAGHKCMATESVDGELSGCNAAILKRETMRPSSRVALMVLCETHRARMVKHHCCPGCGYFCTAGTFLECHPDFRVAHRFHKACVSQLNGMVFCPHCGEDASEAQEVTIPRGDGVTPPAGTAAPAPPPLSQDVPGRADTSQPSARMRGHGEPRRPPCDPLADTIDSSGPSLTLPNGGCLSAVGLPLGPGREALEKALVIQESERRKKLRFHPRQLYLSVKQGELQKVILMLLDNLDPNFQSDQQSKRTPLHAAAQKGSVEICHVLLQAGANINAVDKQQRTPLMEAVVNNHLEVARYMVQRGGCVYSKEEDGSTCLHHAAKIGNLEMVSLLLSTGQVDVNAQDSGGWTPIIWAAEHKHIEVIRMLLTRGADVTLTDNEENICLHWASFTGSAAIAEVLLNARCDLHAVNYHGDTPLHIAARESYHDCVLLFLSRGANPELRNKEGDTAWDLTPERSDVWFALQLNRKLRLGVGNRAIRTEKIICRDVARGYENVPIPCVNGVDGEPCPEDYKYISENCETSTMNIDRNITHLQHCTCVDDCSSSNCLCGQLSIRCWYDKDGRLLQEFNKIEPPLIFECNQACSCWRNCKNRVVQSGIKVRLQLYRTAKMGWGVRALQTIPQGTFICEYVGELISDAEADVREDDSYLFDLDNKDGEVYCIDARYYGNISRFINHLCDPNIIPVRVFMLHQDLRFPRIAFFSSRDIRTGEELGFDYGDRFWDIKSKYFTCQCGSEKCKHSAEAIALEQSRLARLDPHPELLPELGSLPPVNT
The assay is described as follows: MDA-MB-231 H3K9me2 in-cell Western assay (EHMT2 ICW). To be noted: H3K9me2 in-cell Western, MDA-MB-231 cells; read-out: EHMT2 ICW (IC50 μM). The assay is classed as cell-based. The method in brief:
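Infrared read-out at 800 and 700 nm (H3K9me2 antibody vs DRAQ5 DNA stain) of fixed MDA-MB-231 cells after 48 h compound treatment at 37 °C. Well ratios were converted to percent inhibition, and IC50 was obtained by variable-slope nonlinear regression on triplicates.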
In the case of `CCN1CC(COc2cc(Nc3nccc4[nH]ccc34)ncc2OC)C1` [Compound 564], the IC50 is more than 10 µM.
The value for `C/C=C/C(=O)Nc1ccc(OC)c(OCCCN2CCCC2)c1` [Compound 598] was more than 10 µM; that for `CCN1CC(COc2cc(Nc3cc(NC)ncc3F)ncc2OC)C1` [Compound 566] was more than 10 µM.
